In patent US20160320368A1, “METHOD AND APPARATUS FOR PREDICTING EFFECTIVE DOSE OR SENSITIVITY OF 5-HYDROXY-1H-IMIDAZOLE-4-CARBOXAMIDE, METHOD FOR DETERMINING AMOUNT OF XANTHOSINE MONOPHOSPHATE, AND TREATMENT AGENT AND METHOD FOR TREATING MYELODYSPLASTIC SYNDROME” (FUJIFILM Corporation, priority 2014, published 2016):

Tested on: human myeloid leukemia cell line SKM-1
Test: Cell growth inhibitory activity (CellTiter-Glo, 72 hours)
Type: cell-based
Details: SKM-1, 72 hours
Protocol: A ¾ hydrate of Compound A was used as a test compound.
SKM-1 (available from National Institute of Biomedical Innovation JCRB Cell Bank) was used as a human myeloid leukemia cell line.
90 μL (5000 cells) of the human myeloid leukemia cell line SKM-1 was seeded onto a 96-well plate. 10 μL of a PBS solution of the test compound (0 μmol/L, 1 μmol/L, 3 μmol/L, 10 μmol/L, 30 μmol/L, 100 μmol/L, 300 μmol/L, 1000 μmol/L, 3000 μmol/L, or 10000 μmol/L in terms of Compound A) was added to the plate which was then incubated in 5% CO2 at 37° C. for 72 hours. 100 μL of CellTiter-Glo (manufactured by Promega) was added to each well to prepare a cell lysate.
The relative value of chemiluminescence intensity was calculated by a plate reader.

- IC50: 21.5 µM
- IC50 (in terms of Compound A): 2.73 µg/mL
Structure (SMILES): NC(=O)c1nc[nH]c1O [Compound A, 5-Hydroxy-1H-imidazole-4-carboxamide]
